Measured values: the supplement of paper PMC5908809

Assays:
SNK-6 (IL-2 2.5 ng/mL) [1] = assay: percent inhibition of viability; higher = more inhibition; details: 72 h
YT (IL-2 2.5 ng/mL) [2] = assay: as above; details: 72 h
[3] = tested on: normal primary NK cells, pool 1 (3 donors) (IL-2 2.5 ng/mL); assay: as above; details: 72 h
[4] = tested on: normal primary NK cells, pool 1 (3 donors), resting (IL-2 0 ng/mL); assay: as above; details: 72 h
[5] = tested on: normal primary NK cells, pool 2 (3 donors) (IL-2 2.5 ng/mL); assay: as above; details: 72 h
[6] = tested on: normal primary NK cells, pool 3 (3 donors) (IL-2 2.5 ng/mL); assay: as above; details: 72 h
[7] = tested on: normal NK cells expanded with K562-aAPC; assay: drug sensitivity score (DSS) (DSS units); higher = more sensitive; extreme values may be limits of the assay; details: 72 h; IL-2 2.5 ng/mL
Description: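 Drug sensitivity and resistance testing on K562-aAPC-expanded normal NK cells: 5 concentrations (10-fold steps over a 10,000-fold range), 72 h at 37 °C, viability by CellTiter-Glo normalised to DMSO and benzethonium chloride controls; DSS from the fitted curve.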

DERL-7 (IL-2 2.5 ng/mL) = assay: as above; details: 72 h
IMC-1 (IL-2 20 ng/mL) = assay: as above; details: 72 h
KAI3 (IL-2 2.5 ng/mL) = assay: as above; details: 72 h
KHYG-1 (IL-2 2.5 ng/mL) = assay: as above; details: 72 h
NK-92 (IL-2 2.5 ng/mL) = assay: as above; details: 72 h
NK-YS (IL-2 2.5 ng/mL) = assay: as above; details: 72 h
NKL (IL-2 2.5 ng/mL) = assay: as above; details: 72 h
SNK-6 (IL-2 2.5 ng/mL) [8] = assay: as above; details: 72 h
YT (IL-2 2.5 ng/mL) [9] = assay: as above; details: 72 h
[10] = tested on: normal primary NK cells, pool 1 (3 donors) (IL-2 2.5 ng/mL); assay: as above; details: 72 h
[11] = tested on: normal primary NK cells, pool 1 (3 donors), resting (IL-2 0 ng/mL); assay: as above; details: 72 h
[12] = tested on: normal primary NK cells, pool 2 (3 donors) (IL-2 2.5 ng/mL); assay: as above; details: 72 h
[13] = tested on: normal primary NK cells, pool 3 (3 donors) (IL-2 2.5 ng/mL); assay: as above; details: 72 h
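For percent inhibition of viability in this document: normalised to DMSO-only wells as negative and benzethonium chloride as positive control.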

CC(C)N(CCCNC(=O)Nc1ccc(C(C)(C)C)cc1)C[C@H]1O[C@@H](n2cc(Br)c3c(N)ncnc32)[C@H](O)[C@@H]1O [SGC0946] (max concentration tested 10000 nM)
percent inhibition of viability [%]
Details	SNK-6 (IL-2 2.5 ng/mL) [1]	YT (IL-2 2.5 ng/mL) [2]	[3]	[4]	[5]	[6]
1 nM	–	-3.26	8.37	15.8	-1.67	-5.94
10 nM	–	-3.19	-3.22	-4.32	-6.15	-2.43
100 nM	0.17	0.56	1.91	5.19	8.39	8.64
1000 nM	25.4	0.95	-6.49	-6.57	-1.8	3.42
10000 nM	38.7	27.2	19	62.3	25.8	22.6

Details	drug sensitivity score
DERL-7 (IL-2 2.5 ng/mL)	1.92
IMC-1 (IL-2 20 ng/mL)	0.74
KAI3 (IL-2 2.5 ng/mL)	4.84
KHYG-1 (IL-2 2.5 ng/mL)	0.48
NK-92 (IL-2 2.5 ng/mL)	3.88
NK-YS (IL-2 2.5 ng/mL)	0.7
NKL (IL-2 2.5 ng/mL)	1.63
SNK-6 (IL-2 2.5 ng/mL) [8]	4.92
YT (IL-2 2.5 ng/mL) [9]	1.23
[7]	0.11
[10]	0.32
[11]	2.93
[12]	0.89
[13]	1.29
